Test [1] concerns the target T1, CEF (Capping Enzyme of Flavivirus) (Dengue virus type 2, UniProt P14340).
T1 construct: is a thirty-three kDa N-terminal domain of the RNA-dependent RNA polymerase; made in house; host or cells: E. coli (vector pQE30)
The experiment in a line: Competition with α-32P-GTP for covalent binding to CEF (no UV, gel electrophoresis/autoradiography). Details: species or system Dengue virus type 2 (New Guinea). As to conditions: 0-1000 μM competitor, 10 min before α-32P-GTP, with magnesium. As for the experimental part:
In the drawings, as noted above, FIGS. 1A and 1B are a pair of photographs of gel electrophoresis. […] 2 μg of CEF was incubated with 50 μM (1 μCi) of either α-^32P-GTP (lane 1, 2, 5, 6) or α-^32P-ATP (lanes 3, 4) in 50 mM Tris pH 7.6, 5 mM DTT in the presence (lane 1, 3-6)) or absence (lane 2) of 5 mM Mg^2+. The sample was cross-linked using UV irradiation (254 nm), boiled for 5 min, and subjected to denaturing gel electrophoresis. Products were analyzed and quantified using photostimulable plates and a FujiImager. Bacteriophage T4 DNA ligase served as a positive control (lane 5). The F25A variant of CEF was purified under the same conditions as those of wild-type CEF. Upper panels show the comassie-blue stained gels, and lower panels the corresponding autoradiographic analysis. […] CEF was incubated during 10 min with increasing concentrations of Ribavirin 5′-triphosphate (0-50-250-500-750-1000 μM, lanes 1- to 6, respectively) before addition of α-^32P-GTP to the reaction mixture and further incubation for 20 min. The mixture was boiled for 5 min, subjected to denaturing gel electrophoresis, and the gel analyzed and quantified as in panel A. Upper panels show the comassie-blue stained gels, and lower panels the corresponding autoradiographic analysis. Ribavirin: Ribavirin 5′-triphosphate; Lig: Bacteriophage T4 DNA ligase. […]

For test [2], the target named is T1, CEF (Capping Enzyme of Flavivirus). Kind of test: UV-crosslinking of α-32P-GTP (or α-32P-ATP) to CEF, direct binding. Details: species or system Dengue virus type 2 (New Guinea). As for the experimental part: In the drawings, as noted above, FIGS. 1A and 1B are a pair of photographs of gel electrophoresis. […] 2 μg of CEF was incubated with 50 μM (1 μCi) of either α-^32P-GTP (lane 1, 2, 5, 6) or α-^32P-ATP (lanes 3, 4) in 50 mM Tris pH 7.6, 5 mM DTT in the presence (lane 1, 3-6)) or absence (lane 2) of 5 mM Mg^2+. The sample was cross-linked using UV irradiation (254 nm), boiled for 5 min, and subjected to denaturing gel electrophoresis. Products were analyzed and quantified using photostimulable plates and a FujiImager. Bacteriophage T4 DNA ligase served as a positive control (lane 5). The F25A variant of CEF was purified under the same conditions as those of wild-type CEF. Upper panels show the comassie-blue stained gels, and lower panels the corresponding autoradiographic analysis. […] The mixture was boiled for 5 min, subjected to denaturing gel electrophoresis, and the gel analyzed and quantified as in panel A. Upper panels show the comassie-blue stained gels, and lower panels the corresponding autoradiographic analysis. […]
The binding affinity constant of GTP to CEF can be easily determined using a fixed concentration of CEF and increasing concentrations of radiolabeled GTP as described in FIG. 1A. […]

Test [3] shares this target. Kind of test: Competition with radiolabeled GTP for CEF, CEF-GTP complex assayed by UV-crosslinking. The format is binding, Dengue virus type 2 (New Guinea). As for the experimental part:
The invention can also be useful in methods for determining the inhibitory power of a biologically active compound acting as a competitive inhibitor of GTP comprising: • a) incubating CEF with radiolabeled GTP, • b) adding selected different concentrations of the biologically active compound, • c) assaying resulting radiolabeled CEF-GTP complex produced from the incubation, • d) quantifying an amount of radiolabeled CEF-GTP complex produced from the assay, • e) comparing the amount to a binding affinity constant of GTP to CEF, and • f) determining the inhibitory power of the biologically active compound.
More particularly, the incubating step in the methods of the invention is conducted at about 52 μM of GTP. Selected different concentrations of GTP are about 0 μM, about 10 μM, about 20 μM, about 50 μM, about 100 μM, about 200 μM, about 300 μM, about 500 μM, and about 800 μM. Assaying in the methods of the invention comprises UV-crosslinking of α-^32P-GTP to CEF.
The CEF-GTP complex is then assayed using UV-crosslinking as described above. If acyclovir 5′triphosphate competes with radiolabeled GTP for the CEF active-site, acyclovir 5′triphosphate will replace GTP in the active-site.

As for `NC(=O)c1ncn([C@@H]2O[C@H](COP(=O)(O)OP(=O)(O)OP(=O)(O)O)[C@@H](O)[C@H]2O)n1` [Ribavirin 5′-triphosphate], the “effect on GTP-binding to CEF” value in test [1] is on record as “able to decrease GTP-binding to CEP”.
As to `Nc1ncnc2c1ncn2[C@@H]1O[C@H](COP(=O)(O)OP(=O)(O)OP(=O)(O)O)[C@@H](O)[C@H]1O` [α-^32P-ATP], the “labeling of CEF by radiolabeled nucleotide after UV irradiation” value in test [2] (50 μM nucleotide, 2 μg CEF, UV 254 nm) was “unable to label CEF significantly”.
Take `Nc1nc2c(ncn2COCCOP(=O)(O)OP(=O)(O)OP(=O)(O)O)c(=O)[nH]1` [acyclovir 5′-triphosphate]: the Kd in test [3] (CEF first incubated with about 52 μM GTP, increasing competitor, read-out: relative binding affinity constant for binding to CEF) is roughly 79 µM. Moreover, the “inhibition of the CEF enzyme (in words)” value in test [3] (CEF-acyclovir 5′-triphosphate binding assay) is given as “good inhibitor of the CEF enzyme”.
As for `Nc1nc2c(ncn2[C@@H]2O[C@H](COP(=O)(O)OP(=O)(O)OP(=O)(O)O)[C@@H](O)[C@H]2O)c(=O)[nH]1` [GTP], in test [2] (fixed CEF, increasing radiolabeled GTP, hyperbolic saturation, read-out: binding affinity constant Kd of GTP to CEF), the Kd was 52 µM.

The record behind these values is US6949353B2, “Capping enzyme of flavivirus and utilization of this protein in a process to test drugs with antiviral properties” (priority 2001, dated 2005).
